The values below come from ChEMBL document CHEMBL1201862, “PubChem BioAssay data set” (2004).

SMILES strings stand for the structures.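 96-well plates; 48 h exposure; 5 concentrations. Endpoints by linear interpolation between flanking doses. Not reached: highest tested concentration assigned. Abbreviation: GI50, concentration required for 50% inhibition of growth.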 Calls of active or inactive are those of the source. Cut-off read from the data, not from the text of the source: active = GI50 up to about 1.1 µM and inactive = higher.

Holding throughout (test): NCI anticancer screen, dose series, 48 h
The subject of assay [1] is SR.
Assay [2] has as its system HOP-62.
The test system of assay [3] is MOLT-4.
Assay [4] deals with EKVX.
Assay [5] concerns SF-295.
Assay [6] has as its system A498.
The subject of assay [7] is U-251.
Assay [8] relates to UO-31.
Assay [9] has as its system ACHN.
The test system of assay [10] is IGROV-1.
Assay [11] has as its system SK-MEL-5.
Assay [12] deals with RPMI-8226.
Assay [13] concerns OVCAR-4.
In assay [14] the test system is K562.
In assay [15] the test system is SK-MEL-28.
The test system of assay [16] is SNB-75.
Assay [17] has as its system RXF 393.

As for `COC(=O)C(/C(=N/N)C(=O)Nc1cc(Cl)ccc1Cl)c1nc2ccc([N+](=O)[O-])cc2nc1O` (configuration not stated), the GI50 in assay [1] was > 100 µM (inactive); in assay [2] it was > 100 µM (inactive); in assay [3], 17 µM (inactive); in [4] it was 72.8 µM (inactive); in [5] it was > 100 µM (inactive); in assay [6], 58.5 µM (inactive). The GI50 in assay [7] was > 100 µM (inactive); in [8], 40 µM (inactive); in assay [9] it was 39.1 µM (inactive); in assay [10] it was > 100 µM (inactive); in [11], > 100 µM (inactive); in assay [12], > 100 µM (inactive). In addition, the GI50 is > 100 µM (inactive) in assay [13], 2.74 µM (inactive) in [14] and > 100 µM (inactive) in [15].

For `CC(=O)C1C(=O)N(C(C)C)C[C@@H]2CCC(=O)C[C@H]12` (some centres not stated), the GI50 in assay [2], in assay [3], in assay [4], in assay [5], in assay [6] and in assay [7] was > 100 µM (inactive) in each case. For the same compound, the GI50 in assay [8], in [10], in assay [11], in [12], in assay [13] and in assay [16] was > 100 µM (inactive) throughout. Besides, the GI50 in [14], in assay [17] and in assay [15] was > 100 µM (inactive) each time.

With `CCN(N=O)C1C2(CCCC2)NC(=O)C12CCCC2` (configuration not stated), the GI50 in [1], in [2], in assay [3], in [4], in assay [5] and in assay [6] was > 100 µM (inactive) in each case. Besides, the GI50 in [7], in [8], in [9], in [10], in [12] and in [13] was > 100 µM (inactive) throughout. The GI50 in assay [16], in assay [14], in assay [17] and in assay [15] was > 100 µM (inactive) throughout.

For `CC(C)C1CCC/C=C/C=C/C=C/C=C/C(OC2OC(C)C(O)C(N)C2O)CC2OC(O)(CC(O)CC(O)C(O)CCC(=O)O1)CC(O)C2C(=O)O` (configuration not stated), the GI50 in assay [1], in assay [2], in [3], in assay [5], in assay [6] and in [7] was > 52.5 µM (inactive) each time. The GI50 in [8], in assay [9], in [10], in [11], in [12] and in assay [16] was > 52.5 µM (inactive) each time. For the same compound, the GI50 in [14] and in [15] was > 52.5 µM (inactive) throughout.

Take `C=CNC(=O)NC(=O)CSc1nc(=O)c(-c2ccccc2NC(=O)C(F)(F)F)n[nH]1`: the GI50 is 84.3 µM (inactive) in [1]; 94 µM (inactive) in assay [2]; > 100 µM (inactive) in assay [3]; 75 µM (inactive) in [4]; 50 µM (inactive) in assay [5]; 23.7 µM (inactive) in assay [7]. Besides, the GI50 in assay [8] is > 100 µM (inactive); in [10], > 100 µM (inactive); in assay [11], 0.569 µM (active); in [16], 0.071 µM (active); in [14], > 100 µM (inactive); in [17], > 100 µM (inactive). For the same compound, the GI50 in assay [15] is 66.2 µM (inactive).

For `CCc1c(Cc2[nH]c(Cc3[nH]c(C=O)c(C)c3CC)c(CC)c2CC)[nH]c(C=O)c1C`, the GI50 in [1], in assay [2], in assay [3], in [4], in assay [5] and in assay [7] was > 100 µM (inactive) throughout. Moreover, the GI50 in assay [8] was > 100 µM (inactive); in [9] it was > 100 µM (inactive); in assay [11], > 100 µM (inactive); in [12], > 100 µM (inactive); in assay [16], 34.6 µM (inactive); in assay [14], > 100 µM (inactive). Besides, the GI50 was 39 µM (inactive) in assay [17] and > 100 µM (inactive) in [15].

As for `O=C(O)c1ccccc1/N=N/c1ccc2oc(=O)c(C(=O)Nc3ccccc3)cc2c1`, the GI50 was 35.6 µM (inactive) in assay [2]; 32.8 µM (inactive) in assay [3]; 30.1 µM (inactive) in assay [4]; 50.2 µM (inactive) in assay [5]; 42.4 µM (inactive) in [7]; 37.1 µM (inactive) in [8]. In addition, the GI50 in assay [9] was 50.2 µM (inactive); in assay [10] it was 46.5 µM (inactive); in assay [11] it was 28.4 µM (inactive); in assay [12] it was 19.1 µM (inactive); in assay [16] it was 33 µM (inactive); in [14] it was 39.6 µM (inactive). Further, the GI50 in assay [17] is 28.4 µM (inactive); in assay [15] it was 36.6 µM (inactive).

Consider `COC(=O)Cc1cc(=O)oc2c1C(=O)CCC2`, for which the GI50 in [2], in assay [3], in assay [4], in assay [5], in assay [6] and in assay [7] was > 100 µM (inactive) throughout. Also, the GI50 is 59.2 µM (inactive) in assay [8]; > 100 µM (inactive) in [9]; > 100 µM (inactive) in [10]; > 100 µM (inactive) in [11]; > 100 µM (inactive) in [12]; > 100 µM (inactive) in assay [13]. In addition, the GI50 in assay [16] is 12.1 µM (inactive); in assay [14], > 100 µM (inactive); in assay [17] it was > 100 µM (inactive); in assay [15], > 100 µM (inactive).

With `Cc1c(C(=O)/C=C/c2c(Cl)cccc2Cl)c(=O)n(-c2ccccc2)n1C`, the GI50 in assay [3] was 5.38 µM (inactive); in assay [4] it was 50.1 µM (inactive); in assay [5], 26 µM (inactive); in assay [6] it was 22.4 µM (inactive); in assay [7], 0.0147 µM (active); in assay [8], 31.8 µM (inactive). Moreover, the GI50 was 25.8 µM (inactive) in assay [9], 30.1 µM (inactive) in [10], 5.79 µM (inactive) in assay [17] and 36.1 µM (inactive) in assay [15].

Turning to `CCCN(CCCN)/[N+]([O-])=N\O`, the GI50 was > 100 µM (inactive) in assay [1]; > 100 µM (inactive) in [2]; > 100 µM (inactive) in assay [3]; 0.24 µM (active) in [4]; > 100 µM (inactive) in assay [5]; > 100 µM (inactive) in [7]. The GI50 in [8], in assay [9], in assay [10], in assay [11], in assay [12] and in [13] was > 100 µM (inactive) throughout. Also, the GI50 in assay [16], in assay [14], in [17] and in [15] was > 100 µM (inactive) in each case.

Regarding `C[S+](C)CCOC(=O)C(=[N+]=[N-])c1ccc([N+](=O)[O-])cc1`, the GI50 in assay [2], in assay [3], in assay [4], in assay [5], in assay [6] and in assay [7] was > 100 µM (inactive) each time. Further, the GI50 in assay [8], in [9], in assay [10], in assay [11], in assay [12] and in assay [13] was > 100 µM (inactive) each time. Besides, the GI50 in [16], in assay [14] and in [17] was > 100 µM (inactive) each time.

Consider `COC1(OC)C(N(C)C)=C(Cl)C(=O)/C1=C/C=O`, for which the GI50 was 57.3 µM (inactive) in assay [1]; > 100 µM (inactive) in assay [2]; > 100 µM (inactive) in [3]; > 100 µM (inactive) in assay [5]; > 100 µM (inactive) in assay [6]; > 100 µM (inactive) in assay [7]. Moreover, the GI50 in [8] was > 100 µM (inactive); in [9], 92 µM (inactive); in assay [10], > 100 µM (inactive); in [11], > 100 µM (inactive); in [12], 61 µM (inactive); in [13], > 100 µM (inactive). Also, the GI50 in assay [14] is 33.1 µM (inactive); in assay [15], 53.8 µM (inactive).

With `CC(C)(C)c1cc(C(P(=O)(O)O)P(=O)(O)O)cc(C(C)(C)C)c1O`, the GI50 in assay [2], in assay [3], in [4], in assay [5], in assay [6] and in [7] was > 100 µM (inactive) each time. In addition, the GI50 in assay [8], in assay [9], in assay [10], in [11], in assay [12] and in assay [13] was > 100 µM (inactive) throughout. Also, the GI50 is 95.1 µM (inactive) in assay [16], > 100 µM (inactive) in [14] and > 100 µM (inactive) in [15].
